We go through 30 compounds from publication PMC7158045 (BMC Plant Biology, 2020).

Holding throughout (experiment): biochemical
Test [1] has as its target T1, ZmDRIK1-K217-S514 (Zea mays, UniProt C0P4K9).
T1 construct: kinase domain, K217-S514
T1 sequence (C0P4K9 1-514): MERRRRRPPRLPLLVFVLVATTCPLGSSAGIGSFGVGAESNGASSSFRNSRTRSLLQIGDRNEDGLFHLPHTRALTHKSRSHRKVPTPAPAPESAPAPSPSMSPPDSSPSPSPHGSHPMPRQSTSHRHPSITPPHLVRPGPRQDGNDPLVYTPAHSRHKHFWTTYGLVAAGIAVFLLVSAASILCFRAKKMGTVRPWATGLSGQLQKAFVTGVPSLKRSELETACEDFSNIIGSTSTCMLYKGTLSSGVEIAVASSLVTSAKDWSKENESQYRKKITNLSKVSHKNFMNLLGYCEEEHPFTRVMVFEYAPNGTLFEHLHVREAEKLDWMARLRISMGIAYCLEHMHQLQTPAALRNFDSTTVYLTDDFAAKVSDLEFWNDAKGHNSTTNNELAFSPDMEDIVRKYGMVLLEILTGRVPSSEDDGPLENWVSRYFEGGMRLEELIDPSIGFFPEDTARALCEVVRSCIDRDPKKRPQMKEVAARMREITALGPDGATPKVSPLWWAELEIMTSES
The settings on record: read-out: dTm B, sheet ZmDRIK1-K217-S514;; DSF, Boltzmann fit, 0.1% DMSO.

The target in test [2] is T2, ZmDRIK1 (DROUGHT RESPONSIVE INACTIVE KINASE 1), kinase domain (Zea mays, UniProt C0P4K9).
T2 construct: gene ZEAMMB73_Zm00001d028770; ZmDRIK1-KD R187-S514 (kinase domain)
T2 sequence (C0P4K9 187-514): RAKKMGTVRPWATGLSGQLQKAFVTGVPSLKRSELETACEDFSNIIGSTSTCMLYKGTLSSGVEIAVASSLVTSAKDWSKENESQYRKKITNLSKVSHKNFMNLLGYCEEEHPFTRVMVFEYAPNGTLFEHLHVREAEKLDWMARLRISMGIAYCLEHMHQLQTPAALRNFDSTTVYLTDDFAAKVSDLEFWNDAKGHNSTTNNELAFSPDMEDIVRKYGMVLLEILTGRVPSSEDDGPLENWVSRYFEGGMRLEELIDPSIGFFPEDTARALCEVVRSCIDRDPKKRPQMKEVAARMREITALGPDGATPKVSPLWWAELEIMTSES
The conditions noted are these: read-out: dTm B, sheet ZmDRIK1-R187-S514;; DSF, Boltzmann fit, 0.1% DMSO.

Test [3] has as its target T3, ZmDRIK1-R187-P492 (Zea mays, UniProt C0P4K9).
T3 construct: kinase domain, R187-P492
T3 sequence (C0P4K9 1-514): T1 sequence (C0P4K9 1-514)
The settings on record: read-out: dTm B, DSF, Boltzmann fit, 0.1% DMSO.

The target of test [4] is T4, ZmDRIK1-K217-P492 (Zea mays, UniProt C0P4K9).
T4 construct: kinase domain, K217-P492
T4 sequence (C0P4K9 1-514): T1 sequence (C0P4K9 1-514)
The conditions noted are these: read-out: dTm B, sheet ZmDRIK1-K217-P492;; DSF, Boltzmann fit, 0.1% DMSO.

Structures can show the parent of a compound that is named as a salt.

Regarding `CC1(COc2ccc3c(c2)ncn3-c2ccc3cccc(N4CCC(N)CC4)c3n2)COC1` [Crenolanib (CP-868596)], the ΔTm at 10 µM in test [1] is -0.0308 °C; in test [2] it was -0.526 °C; in test [3] it was -0.209 °C; in test [4], -0.453 °C.

For `CC(C)(C)c1cnc(CSc2cnc(NC(=O)C3CCNCC3)s2)o1` [SNS-032 (BMS-387032)], the ΔTm at 10 µM in test [1] is -0.203 °C; in test [2], -1.09 °C; in test [3], -0.103 °C; in test [4], -0.977 °C.

For `COc1cc2ncnc(Nc3ccc(Cl)cc3F)c2cc1OC` [ZM 306416], the ΔTm at 10 µM in test [1] is -0.336 °C; in test [2] it was -0.525 °C; in test [3], -0.383 °C; in test [4] it was -0.758 °C.

In the case of `CC(C)(O)CC(=O)NCCn1ccc2ncnc(Nc3ccc(Oc4cccc(C(F)(F)F)c4)c(Cl)c3)c21` [TAK-285], the ΔTm at 10 µM in test [1] was 1.35 °C; in test [2], -25.6 °C; in test [3] it was 0.579 °C; in test [4], -0.527 °C.

In the case of `O=C(NCCO)c1cccc(-c2cc(Nc3ccc(OC(F)(F)F)cc3)ncn2)c1` [GNF-5], the ΔTm at 10 µM is 0.543 °C in test [1], -0.0553 °C in test [2], 1.16 °C in test [3] and -0.507 °C in test [4].

As to `Cn1cc(C2=C(c3cn(CCCSC(=N)N)c4ccccc34)C(=O)NC2=O)c2ccccc21` [Ro 31-8220 Mesylate], the ΔTm at 10 µM in test [1] was -0.33 °C; in test [2], -0.819 °C; in test [3], -0.197 °C; in test [4], -1.24 °C.

With `COC[C@H]1OC(=O)c2coc3c2[C@@]1(C)C1=C(C3=O)[C@@H]2CCC(=O)[C@@]2(C)C[C@H]1OC(C)=O` [Wortmannin], the ΔTm at 10 µM in test [1] was -0.299 °C; in test [2], -0.735 °C; in test [3] it was -0.289 °C; in test [4], -1.08 °C.

With `CC(C)(C)Cn1c(N)nc2ccc(-c3[nH]c(C(C)(C)C)nc3-c3ccc(F)cc3)nc21` [LY2228820], the ΔTm at 10 µM in test [1] is -0.619 °C; in test [2], -0.95 °C; in test [3], -0.267 °C; in test [4], -0.453 °C.

For the compound `N=C(N)NC(=N)NCCc1ccccc1` [Phenformin HCl], the ΔTm at 10 µM in test [1] was -0.473 °C; in test [2], -0.596 °C; in test [3] it was -0.125 °C; in test [4], -1.3 °C.

As to `N#C/C(=C\c1ccc(O)c(O)c1)C(=O)NCc1ccccc1` [AG-490 (Tyrphostin B42)], the ΔTm at 10 µM in test [1] is -0.507 °C; in test [2], -1.15 °C; in test [3], -0.394 °C; in test [4], -0.722 °C.

Turning to `CC[C@H](Nc1ncnc2[nH]cnc12)c1nc2cccc(F)c2c(=O)n1-c1ccccc1` [CAL-101 (Idelalisib)], the ΔTm at 10 µM is -0.31 °C in test [1], -0.612 °C in test [2], -0.326 °C in test [3] and -0.995 °C in test [4].

On to `COc1ccc2c(c1)c(C1=C(c3c[nH]c4ccccc34)C(=O)NC1=O)cn2CCCN(C)C` [Go 6983], for which the ΔTm at 10 µM in test [1] is -0.364 °C; in test [2], -0.633 °C; in test [3], -0.26 °C; in test [4], -1.22 °C.

For the compound `CCN(CC)CCCC(C)Nc1nc(C)cc(Nc2ccc3nc(C)cc(N)c3c2)n1` (stereo not drawn) [NSC 23766], the ΔTm at 10 µM in test [1] was -0.555 °C; in test [2], -0.461 °C; in test [3] it was -0.128 °C; in test [4], -0.485 °C.

Consider `C[C@H](Nc1ncnc2nc[nH]c12)c1cc2cccc(Cl)c2c(=O)n1-c1ccccc1` [IPI-145 (INK1197)], for which the ΔTm at 10 µM was -0.374 °C in test [1], -1.16 °C in test [2], -0.495 °C in test [3] and -0.86 °C in test [4].

With `CC1(C)CNc2cc(NC(=O)c3cccnc3NCc3ccncc3)ccc21` [Motesanib Diphosphate (AMG-706)], the ΔTm at 10 µM in test [1] was -0.221 °C; in test [2], -0.808 °C; in test [3], -0.24 °C; in test [4], -1.01 °C.

In the case of `CNC(=O)c1ccc(C)c(-n2c(C)cc(OCc3ccc(F)cc3F)c(Br)c2=O)c1` [PH-797804], the ΔTm at 10 µM in test [1] was -0.43 °C; in test [2] it was -0.839 °C; in test [3], -0.28 °C; in test [4], -0.248 °C.

Turning to `Cc1cnc(Nc2ccc(OCCN3CCCC3)cc2)nc1Nc1cccc(S(=O)(=O)NC(C)(C)C)c1` [TG101348 (SAR302503)], the ΔTm at 10 µM is -0.238 °C in test [1], -0.804 °C in test [2], -0.567 °C in test [3] and -0.974 °C in test [4].

On to `COc1cc2/c(=N/c3ccc(Br)cc3F)nc[nH]c2cc1OCC1CCN(C)CC1` [Vandetanib (ZD6474)], for which the ΔTm at 10 µM in test [1] is -0.239 °C; in test [2], -0.824 °C; in test [3], -0.154 °C; in test [4], -0.91 °C.

As for `CCOc1cc2ncc(C#N)c(Nc3ccc(F)c(Cl)c3)c2cc1NC(=O)/C=C/CN(C)C` [Pelitinib (EKB-569)], the ΔTm at 10 µM in test [1] was -0.496 °C; in test [2], -0.77 °C; in test [3] it was -0.494 °C; in test [4], -0.854 °C.

For the compound `C[C@@H]1CN(CC(=O)Nc2ccc3c(c2)Cc2cccc(-c4cc(=O)cc(N5CCOCC5)o4)c2S3)C[C@H](C)O1` [KU-60019], the ΔTm at 10 µM in test [1] is -0.426 °C; in test [2], -1.17 °C; in test [3], -0.366 °C; in test [4], -1.19 °C.

`CNC(=O)CN1CCC(Oc2cc3c(Nc4cccc(Cl)c4F)ncnc3cc2OC)CC1` [AZD8931 (Sapitinib)]: the ΔTm at 10 µM is -0.326 °C in test [1], -1.22 °C in test [2], -0.238 °C in test [3] and -1.14 °C in test [4].

As to `CN[C@@H]1C[C@H]2O[C@@](C)([C@@H]1OC)n1c3ccccc3c3c4c(c5c6ccccc6n2c5c31)C(=O)NC4` [Staurosporine], the ΔTm at 10 µM is -0.232 °C in test [1], -0.601 °C in test [2], -0.154 °C in test [3] and -0.631 °C in test [4].

As to `NC1(c2ccc(-c3nc4ccn5c(=O)[nH]nc5c4cc3-c3ccccc3)cc2)CCC1` [MK-2206 2HCl], the ΔTm at 10 µM is -0.181 °C in test [1], -1.02 °C in test [2], -0.104 °C in test [3] and -0.178 °C in test [4].

On to `COc1cc(Nc2ncc3c(n2)-c2ccc(Cl)cc2C(c2c(F)cccc2OC)=NC3)ccc1C(=O)O` [Alisertib (MLN8237)], for which the ΔTm at 10 µM is -0.528 °C in test [1], -1.37 °C in test [2], -0.494 °C in test [3] and -1.1 °C in test [4].

For the compound `Cc1cc(C(=O)NOCCO)c(Nc2ccc(I)cc2F)n(C)c1=O` [AZD8330], the ΔTm at 10 µM in test [1] is -0.42 °C; in test [2], -0.935 °C; in test [3], -0.162 °C; in test [4], -0.83 °C.

For `Cc1cc(N2CCOCC2)cc2[nH]c(-c3c(NC[C@@H](O)c4cccc(Cl)c4)cc[nH]c3=O)nc12` [BMS-536924], the ΔTm at 10 µM was -0.645 °C in test [1], -0.852 °C in test [2], -0.284 °C in test [3] and -1.5 °C in test [4].

With `Cc1c(NC(=O)c2ccc(C(C)(C)C)cc2)cccc1-c1cn(C)c(=O)c(Nc2ccc(C(=O)N3CCOCC3)cc2)n1` [CGI1746], the ΔTm at 10 µM in test [1] was -0.561 °C; in test [2], -1.61 °C; in test [3], -0.389 °C; in test [4], -1.51 °C.

As for `COc1ccc(F)c(F)c1C(=O)c1cnc(NC2CCN(S(C)(=O)=O)CC2)nc1N` [R547], the ΔTm at 10 µM was -0.339 °C in test [1], -0.939 °C in test [2], -0.297 °C in test [3] and -1.09 °C in test [4].

Regarding `Cc1ccc(-c2nn(C(C)(C)C)c3ncnc(N)c23)cc1` [PP1], the ΔTm at 10 µM was -0.253 °C in test [1], -0.972 °C in test [2], -0.136 °C in test [3] and -1.01 °C in test [4].

On to `O=C(NOCC(O)CO)c1cc(Br)c(F)c(F)c1Nc1ccc(I)cc1F` (stereo not drawn) [PD318088], for which the ΔTm at 10 µM in test [1] was -0.114 °C; in test [2] it was -0.924 °C; in test [3] it was 0.042 °C; in test [4], -1.33 °C.
